Among the data in the Kinase Knowledgebase extract (Sharma et al. 2016) are IC50 values, retold here.

Each structure is given as a SMILES string.

Among the targets are PIK3CA (human) (UniProt P42336); PIK3CB (Human) (UniProt P42338); PIK3CD (Human) (UniProt O00329); PIK3CG (human) (UniProt P48736).
Common to all, as to assay: Enzyme Assay

Sequence of PIK3CG (human) (P48736 whole entry, looked up): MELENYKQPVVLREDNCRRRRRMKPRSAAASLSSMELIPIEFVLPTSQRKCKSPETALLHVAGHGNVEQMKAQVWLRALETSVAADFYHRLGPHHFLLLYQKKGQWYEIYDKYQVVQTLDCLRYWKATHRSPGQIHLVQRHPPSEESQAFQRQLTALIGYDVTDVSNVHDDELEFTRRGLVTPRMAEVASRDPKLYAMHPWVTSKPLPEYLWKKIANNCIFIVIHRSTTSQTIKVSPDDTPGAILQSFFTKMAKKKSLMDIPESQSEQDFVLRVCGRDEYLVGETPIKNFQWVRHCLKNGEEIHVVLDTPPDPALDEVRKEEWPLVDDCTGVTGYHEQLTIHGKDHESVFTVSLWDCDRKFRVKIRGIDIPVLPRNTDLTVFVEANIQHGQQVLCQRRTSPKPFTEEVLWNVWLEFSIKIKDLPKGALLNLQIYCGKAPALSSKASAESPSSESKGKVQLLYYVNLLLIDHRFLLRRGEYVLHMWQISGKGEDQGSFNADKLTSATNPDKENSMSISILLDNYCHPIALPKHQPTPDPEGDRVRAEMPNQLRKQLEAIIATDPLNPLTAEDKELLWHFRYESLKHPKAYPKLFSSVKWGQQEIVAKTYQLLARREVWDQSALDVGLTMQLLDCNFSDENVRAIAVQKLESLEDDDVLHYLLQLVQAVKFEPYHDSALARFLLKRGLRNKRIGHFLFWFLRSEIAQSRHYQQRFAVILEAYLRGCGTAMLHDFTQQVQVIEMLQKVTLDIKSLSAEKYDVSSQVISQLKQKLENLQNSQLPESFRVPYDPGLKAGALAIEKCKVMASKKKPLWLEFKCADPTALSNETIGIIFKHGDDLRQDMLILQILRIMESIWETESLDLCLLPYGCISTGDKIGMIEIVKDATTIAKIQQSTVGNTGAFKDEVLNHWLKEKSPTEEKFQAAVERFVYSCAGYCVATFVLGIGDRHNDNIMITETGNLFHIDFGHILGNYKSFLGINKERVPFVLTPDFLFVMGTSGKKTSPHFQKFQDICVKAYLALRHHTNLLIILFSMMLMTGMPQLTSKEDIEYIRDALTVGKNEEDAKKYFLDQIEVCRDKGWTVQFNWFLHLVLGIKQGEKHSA
Sequence of PIK3CD (Human) (O00329 whole entry, looked up): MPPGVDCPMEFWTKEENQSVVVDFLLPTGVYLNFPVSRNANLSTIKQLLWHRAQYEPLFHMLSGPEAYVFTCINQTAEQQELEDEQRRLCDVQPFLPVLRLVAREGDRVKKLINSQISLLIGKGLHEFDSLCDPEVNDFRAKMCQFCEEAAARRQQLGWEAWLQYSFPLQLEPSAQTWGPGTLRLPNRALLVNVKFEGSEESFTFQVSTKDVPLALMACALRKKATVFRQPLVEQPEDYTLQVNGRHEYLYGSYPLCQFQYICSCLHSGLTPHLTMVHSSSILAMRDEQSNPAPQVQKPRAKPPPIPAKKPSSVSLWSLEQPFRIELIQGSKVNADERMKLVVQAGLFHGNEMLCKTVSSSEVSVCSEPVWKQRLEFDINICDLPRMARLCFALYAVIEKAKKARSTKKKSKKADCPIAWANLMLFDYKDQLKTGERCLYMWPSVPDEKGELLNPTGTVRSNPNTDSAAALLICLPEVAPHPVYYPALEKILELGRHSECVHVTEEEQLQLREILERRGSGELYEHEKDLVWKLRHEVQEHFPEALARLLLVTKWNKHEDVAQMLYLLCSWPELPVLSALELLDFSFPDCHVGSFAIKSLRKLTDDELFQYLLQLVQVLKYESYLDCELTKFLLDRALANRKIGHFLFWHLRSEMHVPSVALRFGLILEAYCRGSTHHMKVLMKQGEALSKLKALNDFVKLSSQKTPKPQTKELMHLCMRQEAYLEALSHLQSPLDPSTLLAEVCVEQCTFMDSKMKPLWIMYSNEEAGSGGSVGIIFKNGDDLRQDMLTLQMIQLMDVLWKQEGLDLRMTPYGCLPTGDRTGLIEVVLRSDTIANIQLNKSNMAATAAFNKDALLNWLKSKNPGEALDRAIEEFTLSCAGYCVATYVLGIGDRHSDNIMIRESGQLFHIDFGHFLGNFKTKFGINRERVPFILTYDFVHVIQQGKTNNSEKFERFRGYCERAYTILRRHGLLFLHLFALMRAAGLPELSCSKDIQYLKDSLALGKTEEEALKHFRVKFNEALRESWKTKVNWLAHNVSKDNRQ
Sequence of PIK3CA (human) (P42336 whole entry, looked up): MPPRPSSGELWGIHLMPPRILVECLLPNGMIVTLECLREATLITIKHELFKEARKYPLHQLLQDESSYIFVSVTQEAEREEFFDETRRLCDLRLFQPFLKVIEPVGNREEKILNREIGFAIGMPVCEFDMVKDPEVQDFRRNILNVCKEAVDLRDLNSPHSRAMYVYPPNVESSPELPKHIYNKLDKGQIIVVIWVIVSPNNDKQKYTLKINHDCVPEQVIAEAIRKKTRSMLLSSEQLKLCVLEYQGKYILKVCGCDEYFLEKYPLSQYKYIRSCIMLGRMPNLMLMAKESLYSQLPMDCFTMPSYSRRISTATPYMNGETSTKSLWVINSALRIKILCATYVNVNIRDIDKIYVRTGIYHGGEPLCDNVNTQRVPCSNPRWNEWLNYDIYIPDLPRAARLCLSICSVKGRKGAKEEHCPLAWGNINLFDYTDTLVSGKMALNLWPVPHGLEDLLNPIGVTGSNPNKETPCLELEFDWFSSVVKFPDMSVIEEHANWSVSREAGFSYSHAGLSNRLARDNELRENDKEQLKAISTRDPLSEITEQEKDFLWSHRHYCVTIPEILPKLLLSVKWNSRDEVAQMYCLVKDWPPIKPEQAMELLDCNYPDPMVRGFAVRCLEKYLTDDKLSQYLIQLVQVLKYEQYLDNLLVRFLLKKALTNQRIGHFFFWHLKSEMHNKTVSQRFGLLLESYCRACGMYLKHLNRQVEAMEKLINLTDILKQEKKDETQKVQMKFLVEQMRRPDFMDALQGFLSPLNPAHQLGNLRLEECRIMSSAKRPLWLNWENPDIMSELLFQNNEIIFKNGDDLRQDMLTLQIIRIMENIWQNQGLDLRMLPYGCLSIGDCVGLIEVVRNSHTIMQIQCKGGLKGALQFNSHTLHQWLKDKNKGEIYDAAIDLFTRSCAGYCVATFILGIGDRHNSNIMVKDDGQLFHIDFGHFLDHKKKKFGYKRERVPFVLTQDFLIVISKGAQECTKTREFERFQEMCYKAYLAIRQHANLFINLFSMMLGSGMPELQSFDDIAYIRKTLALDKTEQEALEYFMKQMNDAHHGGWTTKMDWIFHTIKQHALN
Sequence of PIK3CB (Human) (P42338 whole entry, looked up): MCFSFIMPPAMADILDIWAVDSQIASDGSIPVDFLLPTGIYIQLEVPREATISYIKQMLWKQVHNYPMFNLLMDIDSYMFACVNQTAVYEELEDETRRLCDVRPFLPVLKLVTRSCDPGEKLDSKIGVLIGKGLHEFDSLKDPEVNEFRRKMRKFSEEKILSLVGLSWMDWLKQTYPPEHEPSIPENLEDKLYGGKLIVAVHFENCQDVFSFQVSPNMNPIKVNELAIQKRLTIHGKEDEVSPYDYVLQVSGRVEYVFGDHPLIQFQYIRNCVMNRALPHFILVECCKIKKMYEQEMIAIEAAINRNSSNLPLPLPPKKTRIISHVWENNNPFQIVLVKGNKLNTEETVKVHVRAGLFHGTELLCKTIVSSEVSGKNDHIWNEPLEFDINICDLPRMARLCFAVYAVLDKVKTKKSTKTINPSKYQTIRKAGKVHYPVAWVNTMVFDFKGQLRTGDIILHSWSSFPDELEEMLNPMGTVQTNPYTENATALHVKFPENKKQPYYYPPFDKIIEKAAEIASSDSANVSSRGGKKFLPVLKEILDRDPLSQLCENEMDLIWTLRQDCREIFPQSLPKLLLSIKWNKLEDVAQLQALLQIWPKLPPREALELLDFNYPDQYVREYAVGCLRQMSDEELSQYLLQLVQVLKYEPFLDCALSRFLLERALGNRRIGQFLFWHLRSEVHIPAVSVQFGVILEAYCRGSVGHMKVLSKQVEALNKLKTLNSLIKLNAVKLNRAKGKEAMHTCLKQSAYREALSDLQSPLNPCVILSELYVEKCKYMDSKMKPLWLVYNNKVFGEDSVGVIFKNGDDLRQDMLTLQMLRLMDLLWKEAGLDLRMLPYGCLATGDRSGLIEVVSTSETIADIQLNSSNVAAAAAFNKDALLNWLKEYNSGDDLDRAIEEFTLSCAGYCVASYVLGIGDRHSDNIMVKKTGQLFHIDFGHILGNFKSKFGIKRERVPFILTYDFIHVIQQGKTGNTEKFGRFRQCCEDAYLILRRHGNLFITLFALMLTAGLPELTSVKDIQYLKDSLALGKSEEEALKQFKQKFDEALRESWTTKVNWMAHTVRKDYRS

One may read the IC50 as the concentration that inhibits the measured activity by half. Lower therefore signals inhibition by little substance. Turning to `O=c1cc(N2CCOCC2)nc2n1CC[C@@H](C(F)(F)F)N2Cc1ccccc1`, the IC50 is 50 nM at PIK3CA (human), 99 nM against PIK3CB (Human), 53 nM against PIK3CD (Human) and 1600 nM on PIK3CG (human).
On to `CC(C)OCCN1c2nc(N3CCOCC3)cc(=O)n2CC[C@H]1C(F)(F)F`, for which the values for the IC50 against PIK3CB (Human), on PIK3CD (Human) and at PIK3CG (human) were 233 nM, 211 nM and 1750 nM, respectively.
On to `C[C@H]1COCCN1c1cc(=O)n2c(n1)N(Cc1ccc(Cl)s1)[C@H](C(F)(F)F)CC2`, for which the IC50 against PIK3CA (human) stood at 1010 nM; against PIK3CB (Human), 643 nM; on PIK3CD (Human), 364 nM; against PIK3CG (human), 1820 nM.
Take `O=c1cc(N2CCOCC2)nc2n1CC[C@@H](C(F)(F)F)N2C[C@H](O)c1ccccc1`: the IC50 against PIK3CB (Human) is 998 nM; on PIK3CG (human), more than 10000 nM.
For the molecule `O=c1cc(N2CC3CCC(C2)O3)nc2n1CC[C@@H](C(F)(F)F)N2Cc1ccc(Cl)s1`, the IC50 at PIK3CA (human) was found to be 3690 nM; at PIK3CD (Human), 3790 nM.
With `CC1(C)CCn2c(nc(N3CCOCC3)cc2=O)N1C[C@@H](O)c1ccccc1`, the IC50 at PIK3CA (human) is 1920 nM; at PIK3CB (Human), 4590 nM; against PIK3CD (Human) it was 1170 nM; at PIK3CG (human) it was 7350 nM.
Take `C[C@@H]1COCCN1c1cc(=O)n2c(n1)N(Cc1ccc(Cl)s1)[C@H](C(F)(F)F)CC2`: the IC50 against PIK3CA (human) stood at 2900 nM; on PIK3CD (Human), 1300 nM.
As for `O=c1cc(N2CCOCC2)nc2n1CC[C@@H](C(F)(F)F)N2CCc1ccccc1`, the IC50 on PIK3CA (human) came out at 17 nM; against PIK3CB (Human), 36 nM; at PIK3CD (Human), 14 nM; on PIK3CG (human), 107 nM.
As to `O=c1cc(N2CCOCC2)nc2n1CC[C@@H](C(F)(F)F)N2c1cc(F)cc(F)c1`, the IC50 on PIK3CB (Human) was determined as 340 nM; against PIK3CD (Human), 270 nM; on PIK3CG (human), 3510 nM.
For `O=c1cc(N2CCOCC2)nc2n1CC[C@@H](C(F)(F)F)N2c1ccccc1` the same measures were 93 nM, 61 nM and 1880 nM.
As for `O=c1cc(N2CCOCC2)nc2n1CC[C@@H](C(F)(F)F)N2Cc1ccc(Cl)s1`, the IC50 on PIK3CA (human) turned out to be 502 nM; at PIK3CB (Human), 218 nM; against PIK3CD (Human) it was 169 nM; against PIK3CG (human) it was 7170 nM.
For `CC(C)OCCN1c2nc(N3CCOCC3)cc(=O)n2CCC1(C)C`, the IC50 on PIK3CA (human) is 7430 nM; on PIK3CB (Human) it was more than 10000 nM; against PIK3CD (Human), 4130 nM; at PIK3CG (human), more than 10000 nM.
Turning to `CC(C)OCCN1c2nc(N3CCOCC3)cc(=O)n2CC[C@@]1(C)C(F)(F)F`, the IC50 turned out to be 88 nM against PIK3CA (human), 34 nM against PIK3CB (Human), 27 nM against PIK3CD (Human) and 628 nM at PIK3CG (human).
Take `O=c1cc(N2CCOCC2)nc2n1CC[C@@H](C(F)(F)F)N2C[C@@H](O)c1ccccc1`: the IC50 was 16 nM on PIK3CB (Human) and 15 nM against PIK3CG (human).
Take `O=c1cc(N2CCOCC2)nc2n1CCC1(CC1)N2C[C@@H](O)c1ccccc1`: the IC50 against PIK3CA (human) came out at 931 nM; at PIK3CB (Human), 3500 nM; against PIK3CD (Human), 606 nM; against PIK3CG (human) it was 2930 nM.
